Assay results: PubChem BioAssay AID2060609 (Molecular Pharmacology Branch, DTP, NCI, 2025)
pIC50: −log10 of the molar value.

Test system: 855422-203-R-J1-PDC complex spheroids, viability
Assay: Anticancer human tumor 855422-203-R-J1-PDC patient-derived bladder carcinoma cell line growth inhibition [CLK]
Conditions: for pIC50: curve of first compound; for viability, T/C: stronger effect = lower value
In short: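 Multi-cell-type spheroids combined patient-derived tumor cells with HUVEC endothelial cells and human mesenchymal stem cells. Paired agents were dosed in half-log steps down from about clinical Cmax, or from 10 microM where Cmax was unknown.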

[1] = second compound 0.0316 µM, first compound 0.0316 µM
[2] = second compound 0.0316 µM, first compound 0.1 µM
[3] = second compound 0.1 µM, first compound 0.0316 µM
[4] = second compound 0.1 µM, first compound 0.1 µM
[5] = second compound 0.316 µM, first compound 0.0316 µM
[6] = second compound 0.316 µM, first compound 0.1 µM
[7] = second compound 1 µM, first compound 0.0316 µM
[8] = second compound 1 µM, first compound 0.1 µM
[9] = second compound 3.16 µM, first compound 0.0316 µM
[10] = second compound 3.16 µM, first compound 0.1 µM
[11] = second compound 10 µM, first compound 0.0316 µM
[12] = second compound 10 µM, first compound 0.1 µM
[13] = second compound 0.0316 µM, first compound 0.316 µM
[14] = second compound 0.0316 µM, first compound 1 µM
[15] = second compound 0.0316 µM, first compound 3.16 µM
[16] = second compound 0.0316 µM, first compound 10 µM
[17] = second compound 0.1 µM, first compound 0.316 µM
[18] = second compound 0.1 µM, first compound 1 µM
[19] = second compound 0.1 µM, first compound 3.16 µM
[20] = second compound 0.1 µM, first compound 10 µM
[21] = second compound 0.316 µM, first compound 0.316 µM
[22] = second compound 0.316 µM, first compound 1 µM
[23] = second compound 0.316 µM, first compound 3.16 µM
[24] = second compound 0.316 µM, first compound 10 µM
[25] = second compound 1 µM, first compound 0.316 µM
[26] = second compound 1 µM, first compound 1 µM
[27] = second compound 1 µM, first compound 3.16 µM
[28] = second compound 1 µM, first compound 10 µM
[29] = second compound 3.16 µM, first compound 0.316 µM
[30] = second compound 3.16 µM, first compound 1 µM
[31] = second compound 3.16 µM, first compound 3.16 µM
[32] = second compound 3.16 µM, first compound 10 µM
[33] = second compound 10 µM, first compound 0.316 µM
[34] = second compound 10 µM, first compound 1 µM
[35] = second compound 10 µM, first compound 3.16 µM
[36] = second compound 10 µM, first compound 10 µM
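Also: spheroids exposed to drugs for seven days before readout.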
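For viability, T/C in this document: 100% = DMSO vehicle control wells.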

Cn1ncnc1[C@H]1c2n[nH]c(=O)c3cc(F)cc(c23)N[C@@H]1c1ccc(F)cc1 + CNC(=O)c1ccc(Nc2nc(OC3CCCC3)c3c(-c4ccc5nc(C)oc5c4)c[nH]c3n2)c(OC)c1
pIC50 (second compound 0.0316 µM): < 7.00 | pIC50 (second compound 0.1 µM): 7.44 | pIC50 (second compound 0.316 µM): > 9.50 | pIC50 (second compound 1 µM): > 9.50 | pIC50 (second compound 3.16 µM): > 9.50 | pIC50 (second compound 10 µM): > 9.50 | viability, T/C (second compound 0.0316 µM, first compound 0.000316 µM): 118% | viability, T/C (second compound 0.0316 µM, first compound 0.001 µM): 102% | viability, T/C (second compound 0.0316 µM, first compound 0.00316 µM): 126% | viability, T/C (second compound 0.0316 µM, first compound 0.01 µM): 109% | viability, T/C [1]: 102% | viability, T/C [2]: 110% | viability, T/C (second compound 0.1 µM, first compound 0.000316 µM): 57.1% | viability, T/C (second compound 0.1 µM, first compound 0.001 µM): 59.4% | viability, T/C (second compound 0.1 µM, first compound 0.00316 µM): 45.4% | viability, T/C (second compound 0.1 µM, first compound 0.01 µM): 66.2% | viability, T/C [3]: 43.5% | viability, T/C [4]: 47.3% | viability, T/C (second compound 0.316 µM, first compound 0.000316 µM): 19.1% | viability, T/C (second compound 0.316 µM, first compound 0.001 µM): 22.2% | viability, T/C (second compound 0.316 µM, first compound 0.00316 µM): 20.5% | viability, T/C (second compound 0.316 µM, first compound 0.01 µM): 24.7% | viability, T/C [5]: 24.2% | viability, T/C [6]: 21.5% | viability, T/C (second compound 1 µM, first compound 0.000316 µM): 21% | viability, T/C (second compound 1 µM, first compound 0.001 µM): 17.4% | viability, T/C (second compound 1 µM, first compound 0.00316 µM): 18% | viability, T/C (second compound 1 µM, first compound 0.01 µM): 18.8% | viability, T/C [7]: 18.4% | viability, T/C [8]: 18.2% | viability, T/C (second compound 3.16 µM, first compound 0.000316 µM): 17.9% | viability, T/C (second compound 3.16 µM, first compound 0.001 µM): 17.6% | viability, T/C (second compound 3.16 µM, first compound 0.00316 µM): 22.1% | viability, T/C (second compound 3.16 µM, first compound 0.01 µM): 18.5% | viability, T/C [9]: 21.7% | viability, T/C [10]: 19.3% | viability, T/C (second compound 10 µM, first compound 0.000316 µM): 20.3% | viability, T/C (second compound 10 µM, first compound 0.001 µM): 21.9% | viability, T/C (second compound 10 µM, first compound 0.00316 µM): 19.2% | viability, T/C (second compound 10 µM, first compound 0.01 µM): 22% | viability, T/C [11]: 18% | viability, T/C [12]: 15.5%

Nc1ccn(C2OC(CO)C(O)C2(F)F)c(=O)n1 (stereo unspecified) + CNC(=O)c1ccc(Nc2nc(OC3CCCC3)c3c(-c4ccc5nc(C)oc5c4)c[nH]c3n2)c(OC)c1
pIC50 (second compound 0.0316 µM): > 7.50 | pIC50 (second compound 0.1 µM): > 7.50 | pIC50 (second compound 0.316 µM): > 7.50 | pIC50 (second compound 1 µM): > 7.50 | pIC50 (second compound 3.16 µM): > 7.50 | pIC50 (second compound 10 µM): > 7.50 | viability, T/C [1]: 26.9% | viability, T/C [2]: 13.1% | viability, T/C [13]: 13% | viability, T/C [14]: 8.48% | viability, T/C [15]: 8.78% | viability, T/C [16]: 6.08% | viability, T/C [3]: 17.3% | viability, T/C [4]: 12.1% | viability, T/C [17]: 12.5% | viability, T/C [18]: 11.8% | viability, T/C [19]: 7.27% | viability, T/C [20]: 5.69% | viability, T/C [5]: 17.4% | viability, T/C [6]: 12.8% | viability, T/C [21]: 12% | viability, T/C [22]: 10.3% | viability, T/C [23]: 5.76% | viability, T/C [24]: 5.3% | viability, T/C [7]: 18.6% | viability, T/C [8]: 21.8% | viability, T/C [25]: 12.8% | viability, T/C [26]: 10.1% | viability, T/C [27]: 9.02% | viability, T/C [28]: 6.99% | viability, T/C [9]: 19.4% | viability, T/C [10]: 16.6% | viability, T/C [29]: 14.9% | viability, T/C [30]: 10.2% | viability, T/C [31]: 8.27% | viability, T/C [32]: 6.69% | viability, T/C [11]: 19.3% | viability, T/C [12]: 16.4% | viability, T/C [33]: 14.1% | viability, T/C [34]: 9.84% | viability, T/C [35]: 10.5% | viability, T/C [36]: 5.99%

O=c1[nH]cc(F)c(=O)[nH]1 + CNC(=O)c1ccc(Nc2nc(OC3CCCC3)c3c(-c4ccc5nc(C)oc5c4)c[nH]c3n2)c(OC)c1
pIC50 (second compound 0.0316 µM): 5.04 | pIC50 (second compound 0.1 µM): 6.28 | pIC50 (second compound 0.316 µM): > 7.50 | pIC50 (second compound 1 µM): > 7.50 | pIC50 (second compound 3.16 µM): > 7.50 | pIC50 (second compound 10 µM): > 7.50 | viability, T/C [1]: 135% | viability, T/C [2]: 119% | viability, T/C [13]: 98.4% | viability, T/C [14]: 72.3% | viability, T/C [15]: 67.5% | viability, T/C [16]: 47.9% | viability, T/C [3]: 65.5% | viability, T/C [4]: 65.7% | viability, T/C [17]: 56.4% | viability, T/C [18]: 40.3% | viability, T/C [19]: 40.8% | viability, T/C [20]: 44.9% | viability, T/C [5]: 26.4% | viability, T/C [6]: 22.8% | viability, T/C [21]: 22.1% | viability, T/C [22]: 18.4% | viability, T/C [23]: 19.7% | viability, T/C [24]: 18.9% | viability, T/C [7]: 23.3% | viability, T/C [8]: 23.9% | viability, T/C [25]: 27.6% | viability, T/C [26]: 17.3% | viability, T/C [27]: 14.5% | viability, T/C [28]: 17.9% | viability, T/C [9]: 25.1% | viability, T/C [10]: 23.8% | viability, T/C [29]: 22.1% | viability, T/C [30]: 16.3% | viability, T/C [31]: 12.7% | viability, T/C [32]: 14.7% | viability, T/C [11]: 21.5% | viability, T/C [12]: 23.3% | viability, T/C [33]: 20.2% | viability, T/C [34]: 17.9% | viability, T/C [35]: 14.7% | viability, T/C [36]: 13.6%
